We go through seven compounds from US8282778B2, “Prevention of bacterial spore formation in a broke system of a board machine” (Kemira Oyj, priority 2006, dated 2012).

Where two headings read alike, the source gives them in different places.

For data set [1], the system named is Bacillus licheniformis 217 strain. Description: Example 3: sporulation of bacilli in broke, metals, DTPA and test product C. It counts as cell-based. As to the method:
(§1) In this laboratory experiment, the effect of bivalent manganese and bivalent iron as well as a chelating agent (DTPA, diethylenetriaminepentaacetic acid) on the sporulation of bacilli isolated from a board machine was studied under conditions of the broke system. For the experiment, an inoculum free of spores was prepared from the Bacillus licheniformis 217 strain by carrying out three consecutive cultivations in a liquid medium for 24 hours (Tryptone-Yeast Extract Medium, +50° C., agitation at 100 rpm) using a low inoculation ratio (0.1% by volume/volume). Broke free of spores was produced by sterilizing dilute broke of the board machine. A low amount of spray starch used in the board machine was added to the broke to make up for the amount of starch consumed by bacterial activity during the transportation of the broke sample to the laboratory. The broke was divided into aliquots of 25 ml each and filled in tubes, followed by the addition of the test agents at different concentrations. 0.2% stock solutions of manganese (Mn(II)Cl2×4H2O) and iron (Fe(II)SO4×7H2O) in deionized water were sterile filtered using 0.2 μm spray filters. 25 μl of the Bacillus culture free of spores were added to each tube, followed by keeping the tubes at 45° C. (agitation at 100 rpm). The amounts of aerobic bacteria and aerobic spores in each tube were determined after different exposure times. The amount of aerobic bacteria were determined by a filtering method, whereas aerobic spores were determined from pasteurized (20 min, 80° C.) samples using the pour plate method (Plate Count Agar in both cases, 45° C., 3 d).
In this laboratory experiment, the effect of a test product C containing a dispersing agent and DTPA on sporulation of bacilli isolated from a board machine was studied under the conditions in the broke system. […]

Data set [2] has the same test system. Description: Example 1: sporulation of bacilli isolated from a board machine in sterilized dilute broke with spray starch. It counts as cell-based. As for the experimental part: as §1, with “0.2% stock solutions of manganese (Mn(II)Cl2×4H2O) and iron (Fe(II)SO4×7H2O) in deionized water were sterile filtered using 0.2 μm spray filters. 25 μl of the Bacillus culture free of spores were added to each tube, followed by keeping the tubes at 45° C. (agitation at 100 rpm).” left out

The conditions of data set [3]: pulping process; cited from earlier work.
Data set [4] deals with Bacillus subtilis bacteria. As to conditions: cited from earlier work.
The target in a further data set is aconitase enzyme (Bacillus subtilis, UniProt P09339). Conditions: concentrations of less than 1 mM; cited from earlier work.
Sequence of aconitase enzyme (P09339 whole entry): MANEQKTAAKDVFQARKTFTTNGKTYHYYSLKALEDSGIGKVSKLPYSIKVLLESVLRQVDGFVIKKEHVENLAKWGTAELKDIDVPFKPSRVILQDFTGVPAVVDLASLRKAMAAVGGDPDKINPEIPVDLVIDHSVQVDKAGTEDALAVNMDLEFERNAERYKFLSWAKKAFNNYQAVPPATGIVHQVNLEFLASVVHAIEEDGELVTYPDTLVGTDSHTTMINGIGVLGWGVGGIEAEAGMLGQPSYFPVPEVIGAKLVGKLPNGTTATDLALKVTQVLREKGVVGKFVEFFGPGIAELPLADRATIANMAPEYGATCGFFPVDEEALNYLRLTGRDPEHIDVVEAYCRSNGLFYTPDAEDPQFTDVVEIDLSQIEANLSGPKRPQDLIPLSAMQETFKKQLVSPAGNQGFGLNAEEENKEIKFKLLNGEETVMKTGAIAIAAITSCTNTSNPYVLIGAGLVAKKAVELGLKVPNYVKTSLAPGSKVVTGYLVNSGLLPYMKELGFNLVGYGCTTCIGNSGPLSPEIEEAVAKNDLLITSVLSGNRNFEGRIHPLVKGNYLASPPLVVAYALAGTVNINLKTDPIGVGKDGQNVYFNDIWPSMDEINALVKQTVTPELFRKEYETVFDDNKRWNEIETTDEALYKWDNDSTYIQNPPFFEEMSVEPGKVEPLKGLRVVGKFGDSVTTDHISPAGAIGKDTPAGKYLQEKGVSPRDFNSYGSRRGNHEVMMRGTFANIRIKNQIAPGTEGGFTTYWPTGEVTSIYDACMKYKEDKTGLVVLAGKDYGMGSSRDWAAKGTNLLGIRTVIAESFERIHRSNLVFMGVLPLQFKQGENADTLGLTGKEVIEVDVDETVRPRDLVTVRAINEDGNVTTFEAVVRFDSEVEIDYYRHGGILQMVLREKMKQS
The test system of data set [5] is Bacillus subtilis bacteria. As to conditions: cited from earlier work. This is another data set of the same source.

As to `O=C(O)CN(CCN(CC(=O)O)CC(=O)O)CCN(CC(=O)O)CC(=O)O` [DTPA, diethylenetriaminepentaacetic acid], the “toxicity to bacilli (amount of aerobic bacteria, FIG. 5)” value in data set [1] is on record as “neither DTPA nor the test product C was toxic”. Moreover, in data set [1] (12 ppm (as active agent)), the reduction of sporulation worked out at 99.4% and the sporulation frequency is on record as 0.11%. In data set [2] (12.5 ppm (as active agent)), the reduction of sporulation is 79%. Also, the inhibition of sporulation result in data set [2] (17.5 ppm) is reported as “total inhibition”.

As to `O=P(O)(O)CN(CCN(CP(=O)(O)O)CP(=O)(O)O)CCN(CP(=O)(O)O)CP(=O)(O)O` [DTPMP, diethylenetriamine-pentakis methylenephosphonic acid], the “chelating performance for manganese” value in data set [3] was “over 95%”.

Turning to `O=C(O)c1ccccn1` [alpha picolinic acid], in data set [4] (concentration of 0.4 mM), the sporulation entry is “reduced sporulation”. Moreover, in data set [4] (concentrations of less than 1 mM (<123 ppm)), the growth result is “not inhibited”.

Turning to `c1ccc(-c2ccccn2)nc1` [dipyridyl], the aconitase enzyme inhibition entry on aconitase enzyme is given as “inhibited”.

In the case of `[Mn+2]` [manganese], the figures for the “amount of sporulating cells of the wild type strain” value in data set [5] (0.006 ppm manganese addition) and in data set [5] (0.8 ppm of manganese added) were “about 2.6%” and 39%, respectively. Besides, the “amount of sporulating cells” value in data set [5] (manganese addition of 0.1 ppm or more, growth medium rich in nutrients) is “increased”.

For the compound `c1cnc2c(c1)ccc1cccnc12` [o-phenanthroline], the aconitase enzyme inhibition result at aconitase enzyme is given as “inhibited”.

For `O=C(O)c1ccc2ccccc2n1` [quinaldic acid], the aconitase enzyme inhibition result at aconitase enzyme is reported as “inhibited”.
